Columns and labels:
Aβ1–42 fibrils = molecular target: T1, Aβ1–42 fibrils (Homo sapiens, UniProt P05067); experiment: Saturation binding of [18F]-9 with Aβ1–42 fibrils
T1 construct: Commercially available amyloid peptide Aβ1-42; purchased
Procedure: For assessing the ability of [^18F]-9 to bind Aβ plaques; binding assays with either AD homogenates or preformed Aβ1–42 aggregates were performed in 30 mM Tris, pH 7.4 buffer supplemented with 0.1% BSA[39]. Nonspecific binding was determined in the presence of 5 (1 μM) as a competitor.
(§1) Scientific Reports Version of August 4, 2016
Binding assays were performed using previously described methods.11 Briefly, a fixed concentration (0.25 µM/well) of Aβ1–42 fibrils was incubated for 1 h at 37 °C with increasing concentrations of [18F]-9 (0.1 nM-15 nM) in 30 mM Tris-HCl pH 7.4, 0.1% BSA in a reaction volume of 150 µl. […] The exact hot:cold ([18F]-9 : 5) ratio was measured in each experiment by counting an aliquot of a sample (2 µl) of the radioligand preparation in a scintillation counter. Binding of [18F]-9 to human brain homogenates was assessed by incubating samples of insoluble fraction (1.25 µg insoluble protein/well) from AD subjects, with increasing concentrations of [18F]-9 (0.1nM-18 nM) for 1 h at 37 °C. Nonspecific binding was determined in parallel experiments in the presence of 5 (1 µM) as a competitor. […] Glass fiber filters containing the bound ligand were mixed with Optiphase Supermix scintillation cocktail (150µl; PerkinElmer) and counted immediately. […]
Bmax values were calculated in pmol/gram wet weight of brain tissue. […]

[1] = Human serum stability by radio-HPLC; assay type: in vitro ADME; conditions: 37 °C
From the text: For biomedical imaging applications, the signal is a net function of target/background ratio. In PET imaging, this signal results from detection of γ-photons arising from annihilation events of positrons and imaging resolution is also dependent upon energy associated with a given radionuclide. Resultant radioactive metabolites could also contribute to nonspecific binding or compete with the parental tracer for binding to the target. Therefore, it is also important to investigate metabolic stability of the radiotracer to explicitly confirm whether or not biochemical targeting profiles of a given tracer are driven by a parental molecular imaging probe. […]
Binding assays were performed using previously described methods.11 Briefly, a fixed concentration (0.25 µM/well) of Aβ1–42 fibrils was incubated for 1 h at 37 °C with increasing concentrations of [18F]-9 (0.1 nM-15 nM) in 30 mM Tris-HCl pH 7.4, 0.1% BSA in a reaction volume of 150 µl. […] The exact hot:cold ([18F]-9 : 5) ratio was measured in each experiment by counting an aliquot of a sample (2 µl) of the radioligand preparation in a scintillation counter. Binding of [18F]-9 to human brain homogenates was assessed by incubating samples of insoluble fraction (1.25 µg insoluble protein/well) from AD subjects, with increasing concentrations of [18F]-9 (0.1nM-18 nM) for 1 h at 37 °C. […]

Aβ plaques = Aβ plaques (Homo sapiens, UniProt P05067); experiment: Histological staining of human AD brain tissue sections
Chain of Aβ plaques (P05067 672-711 limits assumed): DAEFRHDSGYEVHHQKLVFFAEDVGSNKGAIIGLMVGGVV
Procedure: To further assess ability of the 5 to label Aβ plaques in human brain, staining experiments were also performed with postmortem tissues from clinically-characterized AD patients[35][36] As a positive control, a highly specific anti-Aβ antibody (10D5, Eli Lilly, Indianapolis, IN) was used to ascertain the presence of Aβ plaques (Fig. 4A), using well-established procedures for assessment of Aβ plaques in postmortem brain[37]. […] Noticeably, 5 also indicated proficient and distinct labeling of plaque and leptomeningeal vessels (cerebral amyloid angiopathy; CAA) (Fig. 4B). […] This high specificity of 5 for Aβ could be attributed to presence of a benzoselenazole ring within Fluselenamyl. Overall, the ability and sensitivity of 5 to detect diffuse plaques and specificity for AD could represent an important advancement to enable PET imaging of mildly demented individuals, prior to onset of symptoms.
as §1
µm) were cut in the coronal plane on a freezing sliding microtome and stored at -20°C. 7,8 Tissue was stained as free-floating sections. Prior to staining, tissue sections were permeabilized with PBS-Tritron-X-100 (0.25%) for 30 minutes, and then blocked with 1% non-fat dry milk in PBS-Ttiton-X-100 for 60 minutes.
Hippocampus tissue sections of APP+/-/PS1+/- and age-matched control BL/6 (WT, SI Figure 3) were incubated with fluorescent molecule 5 (100 nM dissolved in 1% ethanol in PBS) for 60 minutes, and washed 3-times with PBS-Triton-X-100.9 Thereafter, tissue sections were incubated with mouse-anti-Aβ (mHJ3.4) 7 that was directly conjugated to Alexa 568 for 90 minutes and washed 3-times with PBS-Triton-X-100.
Tissue sections were mounted onto SuperFrost Plus slides, dried overnight at room temperature, and then sealed with Fluoromount G (Southern Biotech, Birmingham, AL). […]
other neurodegenerative diseases (SI, Figure 4A & 4B). Sections were visualized, processed, and analyzed using a Pascal confocal microscope. […]

T1 sequence (P05067 672-713 limits assumed): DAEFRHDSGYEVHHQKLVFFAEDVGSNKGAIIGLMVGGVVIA

| SMILES | Bmax (Aβ1–42 fibrils) [pmol/nmol] | Kd (Aβ1–42 fibrils; 30 mM Tris pH 7.4, 0.1% BSA, one-site model) [nM] | presence of parental tracer (single radio-peak) in human serum [1] | presence of parental tracer (single radio-peak) in human serum ([1]; listed as 18F-9) [h] | labeling of Aβ plaques in frontal lobe tissue sections (Aβ plaques; 2 μM, person with AD) | staining of diffuse plaques (Aβ plaques; AD frontal lobe sections) |
| --- | --- | --- | --- | --- | --- | --- |
| CN(C)c1ncc(/C=C\c2nc3cc(OCC[18F])ccc3[se]2)cn1 [[^18F]-9] | 1.3 | 1.6 | up to 3 h | 3 |  |  |
| CN(C)c1ncc(/C=C\c2nc3cc(OCCF)ccc3[se]2)cn1 [compound 5, (Z)-5-(2-(5-(2-fluoroethoxy)benzo[d][1,3]selenazol-2-yl)vinyl)-N,N-dimethylpyrimidin-2-amine] |  |  |  |  | strikingly distinct labeling of Aβ plaques | labeling of numerous diffuse Aβ plaques |

Source: article PMC5090206, “Fluselenamyl: A Novel Benzoselenazole Derivative for PET Detection of Amyloid Plaques (Aβ) in Alzheimer’s Disease” (Scientific Reports, 2016)
